# Reference: patent US20060276464A1, “Diarylsulfone sulfonamides and use thereof” (Wyeth, priority 2005, published 2006)
# pEC50, pIC50: −log10 of the molar value. Where two headings read alike, the source gives them in different places.
# Legend:
# SFRP-1 [1] = molecular target: T1, SFRP-1 (Homo sapiens, UniProt Q8N474); assay: Fluorescence polarization binding assay (competitive displacement of a probe compound from SFRP-1); details: fluorescence anisotropy, 45 nM SFRP-1, 20 nM probe;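 further: test compound competes with a fluorescent probe held by SFRP-1, seen as a drop in probe anisotropy after incubation in darkness, with anisotropy as function of rising compound dose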
# T1 sequence (Q8N474 32-314): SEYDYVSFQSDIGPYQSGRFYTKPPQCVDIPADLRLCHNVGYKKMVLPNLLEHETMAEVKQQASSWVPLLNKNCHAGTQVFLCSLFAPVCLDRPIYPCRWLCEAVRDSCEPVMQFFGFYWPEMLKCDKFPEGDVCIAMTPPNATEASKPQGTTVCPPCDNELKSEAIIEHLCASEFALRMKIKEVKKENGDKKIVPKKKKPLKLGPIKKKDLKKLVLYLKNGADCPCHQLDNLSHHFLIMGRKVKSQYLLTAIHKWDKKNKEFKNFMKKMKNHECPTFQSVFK
# SFRP-1 [2] = molecular target: T1, SFRP-1; assay: Cell-based assay for in vitro measurement of SFRP-1/SARP2 antagonist activity (U2OS cells co-transfected with 16x TCF-tk-Luciferase reporter, Wnt and hSFRP-1); details: for fold induction at 15 µM / fold induction at 10 µM: U2OS; for fold induction at 15 µM: single dose, luciferase reporter; for fold induction at 10 µM: read-out: Fold Induction with SFRP-1, U2OS cells, single dose 10 μM, luciferase reporter, fold induction over SFRP-1 control;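 on all read-outs here: U2OS cells co-transfected with a TCF-tk luciferase reporter, a Wnt vector, hSFRP-1 or empty vector and CMV-βgal, luciferase luminescence read in cell lysates alongside βgal activity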
# [3] = read-out: Fold Induction with SFRP-1, Conc 15 μM, fold induction over SFRP-1 control, cells with SFRP-1
# [4] = read-out: Fold Induction without SFRP-1, Conc 15 μM, cells without SFRP-1 (specificity control)
pIC50 (SFRP-1 [1]),melting point,fold induction at 15 µM (SFRP-1 [2]; [3]),fold induction at 15 µM (SFRP-1 [2]; [4]),fold induction at 10 µM (SFRP-1 [2]),pEC50 (SFRP-1 [2]),Structure (SMILES)
5.80,151 to 153 °C,2.2,1.3,–,–,"CCCc1ccc(S(=O)(=O)c2ccc(F)cc2)cc1S(=O)(=O)NC1CCN(C(=O)OC(C)(C)C)CC1 [Example 567, tert-Butyl 4-[({5-[(4-fluorophenyl)sulfonyl]-2-propylphenyl}sulfonyl)amino]piperidine-1-carboxylate]"
5.96,130 to 132 °C,–,–,2.8,–,"CC(C)c1ccc(S(=O)(=O)c2ccccc2)cc1S(=O)(=O)NC1CCN(C(=O)c2ccc3ccccc3c2)CC1 [Example 809, 2-Isopropyl-N-[1-(2-naphthoyl)piperidin-4-yl]-5-(phenylsulfonyl)benzenesulfonamide]"
6.52,154 to 157 °C,–,–,–,5.87,"CN1[C@@H]2CC[C@H]1CC(NS(=O)(=O)c1cc(S(=O)(=O)c3ccccc3)ccc1C(F)(F)F)C2 (relative stereo) [Example 1035, N-[(1R*, 5S*)-8-Methyl-8-azabicyclo[3.2.1]oct-3-yl]-5-(phenylsulphonyl)-2-(trifluoromethyl)benzenesulfonamide]"
6.00,131 to 133 °C,3.1,1.1,–,–,"CCCc1ccc(S(=O)(=O)c2ccccc2)cc1S(=O)(=O)NC1CCOCC1 [Example 551, 5-(Phenylsulfonyl)-2-propyl-N-(tetrahydro-2H-pyran-4-yl)benzenesulfonamide]"
5.59,148 to 150 °C,3,1,–,–,"CC(C)c1cc(C(C)C)c(S(=O)(=O)c2ccc(F)cc2)cc1S(=O)(=O)NCCc1cccnc1 [Example 632, 5-[(4-Fluorophenyl)sulfonyl]-2,4-diisopropyl-N-(2-pyridin-3-ylethyl)benzenesulfonamide]"
6.54,120 to 122 °C,–,–,3.1,6.09,"CC(C)c1ccc(S(=O)(=O)c2ccccc2)cc1S(=O)(=O)NC1CCN(C(=O)c2cccc(C#N)c2)CC1 [Example 810, N-[1-(3-Cyanobenzoyl)piperidin-4-yl]-2-isopropyl-5-(phenylsulfonyl)benzenesulfonamide]"
6.22,150 to 152 °C,–,–,3.9,–,"CC(C)c1ccc(S(=O)(=O)c2ccccc2)cc1S(=O)(=O)NC1CCN(C(=O)c2ccc(C(C)(C)C)cc2)CC1 [Example 812, N-[1-(4-tert-Butylbenzoyl)piperidin-4-yl]-2-isopropyl-5-(phenylsulfonyl)benzenesulfonamide]"
6.00,178 to 180 °C,2,1.2,–,–,"CC(C)c1cc(C(C)C)c(S(=O)(=O)c2ccccc2)cc1S(=O)(=O)NCCc1ccncc1 [Example 617, 2,4-Diisopropyl-5-(phenylsulfonyl)-N-(2-pyridin-4-ylethyl)benzenesulfonamide]"
5.89,148 to 150 °C,2.6,1.1,–,–,"CC(C)c1cc(C(C)C)c(S(=O)(=O)c2ccccc2)cc1S(=O)(=O)NCC1CCOCC1 [Example 611, 2,4-Diisopropyl-5-(phenylsulfonyl)-N-(tetrahydro-2H-pyran-4-ylmethyl)benzenesulfonamide]"
6.10,90 °C,–,–,4.1,–,"CC(C)c1ccc(S(=O)(=O)c2ccccc2)cc1S(=O)(=O)NC1C[C@H]2CC[C@@H](C1)N2C.Cl (relative stereo) [Example 860, 2-Isopropyl-N-[(1R*,5S*)-8-methyl-8-azabicyclo[3.2.1]oct-3-yl]-5-(phenylsulfonyl)benzenesulfonamide monohydrochloride]"
5.80,90 to 92 °C,2,1.1,–,–,"CC(C)c1cc(C(C)C)c(S(=O)(=O)c2ccccc2)cc1S(=O)(=O)NCCC1CCOCC1 [Example 612, 2,4-Diisopropyl-5-(phenylsulfonyl)-N-[2-(tetrahydro-2H-pyran-4-yl)ethyl]benzenesulfonamide]"
–,176 to 178 °C,–,–,1.2,–,"COc1ccc(S(=O)(=O)c2ccccc2)cc1S(=O)(=O)NC1CCOCC1 [Example 689, 2-Methoxy-5-(phenylsulfonyl)-N-(tetrahydro-2H-pyran-4-yl)benzenesulfonamide]"
5.68,156 to 158 °C,1.4,1.1,–,–,"CC(C)c1cc(C(C)C)c(S(=O)(=O)c2ccccc2)cc1S(=O)(=O)NCCc1ccccc1 [Example 609, 2,4-Diisopropyl-N-(2-phenylethyl)-5-(phenylsulfonyl)benzenesulfonamide]"
6.77,225 °C,–,–,2.6,6.52,"CC(C)c1ccc(S(=O)(=O)c2ccccc2)cc1S(=O)(=O)NC1CCN(C(=O)c2ccccc2)CC1 [Example 802, N-(1-Benzoylpiperidin-4-yl)-2-isopropyl-5-(phenylsulfonyl)benzenesulfonamide]"
6.52,143 to 146 °C,4,1.2,–,–,"CCCc1ccc(S(=O)(=O)c2ccccc2)cc1S(=O)(=O)NCCCn1ccnc1 [Example 556, N-[3-(1H-Imidazol-1-yl)propyl]-5-(phenylsulfonyl)-2-propylbenzenesulfonamide]"
6.52,136 to 138 °C,–,–,2.6,–,"CC(C)c1ccc(S(=O)(=O)c2ccccc2)cc1S(=O)(=O)NC1CCN(C(=O)c2ccc(C#N)cc2)CC1 [Example 811, N-[1-(4-Cyanobenzoyl)piperidin-4-yl]-2-isopropyl-5-(phenylsulfonyl)benzenesulfonamide]"
–,154 to 156 °C,1.3,1.1,–,–,"CC(C)c1cc(C(C)C)c(S(=O)(=O)c2ccc(F)cc2)cc1S(=O)(=O)NCCc1ccccc1 [Example 619, 5-[(4-Fluorophenyl)sulfonyl]-2,4-diisopropyl-N-(2-phenylethyl)benzenesulfonamide]"
6.15,128 to 130 °C,1.8,1.1,–,–,"CCCc1ccc(S(=O)(=O)c2ccccc2)cc1S(=O)(=O)NC1CCN(C(=O)OC(C)(C)C)CC1 [Example 558, tert-Butyl 4-({[5-(phenylsulfonyl)-2-propylphenyl]sulfonyl}amino)piperidine-1-carboxylate]"
–,202 to 204 °C,3,1,–,–,"CC(C)c1cc(C(C)C)c(S(=O)(=O)c2ccc(F)cc2)cc1S(=O)(=O)NC1Cc2ccccc2C1 [Example 634, N-(2,3-Dihydro-1H-inden-2-yl)-5-[(4-fluorophenyl)sulfonyl]-2,4-diisopropylbenzenesulfonamide]"
–,210 to 211 °C,1.5,1,–,–,"CC(C)c1cc(C(C)C)c(S(=O)(=O)c2ccc(F)cc2)cc1S(=O)(=O)NCCc1ccncc1 [Example 633, 5-[(4-Fluorophenyl)sulfonyl]-2,4-diisopropyl-N-(2-pyridin-4-ylethyl)benzenesulfonamide]"
–,181 to 183 °C,–,–,1.6,–,"COc1ccc(S(=O)(=O)c2ccccc2)cc1S(=O)(=O)NCCc1cccnc1 [Example 678, 2-Methoxy-5-(phenylsulfonyl)-N-(2-pyridin-3-ylethyl)benzenesulfonamide]"
–,215 to 217 °C,2.8,1.1,–,–,"CC(C)c1cc(C(C)C)c(S(=O)(=O)c2ccccc2)cc1S(=O)(=O)NC1Cc2ccccc2C1 [Example 618, N-(2,3-Dihydro-1H-inden-2-yl)-2,4-diisopropyl-5-(phenylsulfonyl)benzenesulfonamide]"
–,202 to 205 °C,1.2,1,–,–,"CC(C)c1cc(C(C)C)c(S(=O)(=O)c2ccc(F)cc2)cc1S(=O)(=O)NC1CCCC1 [Example 621, N-Cyclopentyl-5-[(4-fluorophenyl)sulfonyl]-2,4-diisopropylbenzenesulfonamide]"
6.22,–,2.8,1.2,–,–,"Cc1cccc(Cl)c1S(=O)(=O)c1ccc(C(C)C)c(S(=O)(=O)NCCc2ccccn2)c1 [Example 578, 5-[(2-chloro-6-methylphenyl)sulfonyl]-2-isopropyl-N-(2-pyridin-2-ylethyl)benzenesulfonamide]"
6.80,–,–,–,3.8,6.31,"O=S(=O)(NCCc1cccnc1)c1cc(S(=O)(=O)c2ccccc2)ccc1C(F)(F)F [Example 677, 5-(phenylsulfonyl)-N-(2-pyridin-3-ylethyl)-2-(trifluoromethyl)benzenesulfonamide]"
5.52,–,3.2,1.1,–,–,"CC(C)c1ccc(S(=O)(=O)c2ccc(N3CCNCC3)cc2)cc1S(=O)(=O)NC1CCOCC1 [Example 628, 2-isopropyl-5-[(4-piperazin-1-ylphenyl)sulfonyl]-N-(tetrahydro-2H-pyran-4-yl)benzenesulfonamide]"
